Values joined by “and” are separate entries in the source; they are usually repeats but may differ in a detail not shown here. Identical values can stand only once. Inconclusive results and toxic doses are left out. Rule as the data show it: active = T/C of 150% or more; inactive = T/C below 125%.
Test system: L1210 leukemia ip in BDF1 mice, survival T/C
Experiment: NCI In Vivo Anticancer Drug Screen. Data for tumor model L1210 Leukemia (intraperitoneal) in B6D2F1 (BDF1) mice
Conditions: endpoint: mean survival time, higher = longer survival
Method in brief: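 Tumor was transplanted into mice, which were then dosed with test compound or vehicle alone. Survival was recorded for each group, and the treated figure was expressed relative to the control figure.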

[1] = dose: 25.0 mg/kg/injection, schedule: Q04DX003 (ip), vehicle: saline
[2] = dose: 50.0 mg/kg/injection, schedule: Q04DX003 (ip), vehicle: saline
[3] = dose: 100.0 mg/kg/injection, schedule: Q04DX003 (ip), vehicle: saline
[4] = dose: 100.0 mg/kg/injection, schedule: Q01DX001 (ip), vehicle: Klucel (hydroxypropylcellulose) (HPC)
[5] = dose: 100.0 mg/kg/injection, schedule: Q01DX009 (ip), vehicle: saline
[6] = dose: 200.0 mg/kg/injection, schedule: Q04DX003 (ip), vehicle: saline
[7] = dose: 400.0 mg/kg/injection, schedule: Q01DX009 (ip), vehicle: saline
[8] = dose: 400.0 mg/kg/injection, schedule: Q04DX003 (ip), vehicle: saline
[9] = dose: 100.0 mg/kg/injection, schedule: Q04DX003 (ip), vehicle: Klucel (hydroxypropylcellulose) (HPC)
[10] = dose: 200.0 mg/kg/injection, schedule: Q04DX003 (ip), vehicle: Klucel (hydroxypropylcellulose) (HPC)
[11] = dose: 400.0 mg/kg/injection, schedule: Q04DX003 (ip), vehicle: Klucel (hydroxypropylcellulose) (HPC)

Measured: T/C

COc1ccc(C(O)c2cc(-c3ccncc3)c(C(O)c3ccc(OC)cc3)nn2)cc1 (configuration not stated)
inactive: dose: 100.0 mg/kg/injection, schedule: Q04DX003 (ip), vehicle: gum acacia 94 % of control | dose: 200.0 mg/kg/injection, schedule: Q04DX003 (ip), vehicle: gum acacia 96 % of control | dose: 400.0 mg/kg/injection, schedule: Q04DX003 (ip), vehicle: gum acacia 88 % of control

S=C(Nc1ccc(Cl)c(Cl)c1)SCc1ccc(Cl)cc1
inactive: [1] 104 % of control | [2] 101 % of control | [3] 104 % of control

O=C1C(Cl)=CC(Cl)=C/C1=N/Cl
inactive: dose: 25.0 mg/kg/injection, schedule: Q01DX001 (ip), vehicle: Klucel (hydroxypropylcellulose) (HPC) 110 % of control | dose: 50.0 mg/kg/injection, schedule: Q01DX001 (ip), vehicle: Klucel (hydroxypropylcellulose) (HPC) 107 % of control | [4] 95 % of control and 100 % of control

COP(=O)(OC)C1CC2CCC1C2 (configuration not stated)
inactive: dose: 100.0 mg/kg/injection, schedule: Q04DX003 (ip), vehicle: acetone 102 % of control | dose: 200.0 mg/kg/injection, schedule: Q04DX003 (ip), vehicle: acetone 102 % of control | dose: 400.0 mg/kg/injection, schedule: Q04DX003 (ip), vehicle: acetone 100 % of control

CNCC(O)c1ccc(O)cc1 (configuration not stated)
inactive: dose: 25.0 mg/kg/injection, schedule: Q01DX009 (ip), vehicle: saline 96 % of control | [1] 111 % of control | dose: 50.0 mg/kg/injection, schedule: Q01DX009 (ip), vehicle: saline 105 % of control | [2] 101 % of control | [5] 98 % of control | [3] 90 % of control and 101 % of control | dose: 200.0 mg/kg/injection, schedule: Q01DX009 (ip), vehicle: saline 98 % of control | [6] 88 % of control and 104 % of control | [7] 100 % of control | [8] 98 % of control and 120 % of control

FC(F)(F)C(F)(F)C(F)(F)c1nc2nc(Cl)c(Cl)nc2[nH]1
inactive: dose: 25.0 mg/kg/injection, schedule: Q01DX009 (ip), vehicle: saline with Tween-80 111 % of control | dose: 50.0 mg/kg/injection, schedule: Q01DX009 (ip), vehicle: saline with Tween-80 96 % of control and 100 % of control | dose: 100.0 mg/kg/injection, schedule: Q04DX003 (ip), vehicle: saline with Tween-80 91 % of control | dose: 200.0 mg/kg/injection, schedule: Q04DX003 (ip), vehicle: saline with Tween-80 93 % of control

O=C1C(c2ccccc2)=C2c3ccccc3-c3ccccc3C2(O)C1c1ccccc1 (configuration not stated)
inactive: [4] 98 % of control | dose: 200.0 mg/kg/injection, schedule: Q01DX001 (ip), vehicle: Klucel (hydroxypropylcellulose) (HPC) 103 % of control | dose: 400.0 mg/kg/injection, schedule: Q01DX001 (ip), vehicle: Klucel (hydroxypropylcellulose) (HPC) 98 % of control

CC=C=[CH][Sn]([CH2]CC)([CH2]CC)[CH2]CC
inactive: dose: 75.0 mg/kg/injection, schedule: Q01DX001 (ip), vehicle: saline 91 % of control

CSc1n[nH]c(/N=N/N(C)C)c1C(N)=O
inactive: [9] 99 % of control | [10] 103 % of control | [11] 111 % of control

c1ccc2oc(CCCCc3nc4ccccc4o3)nc2c1
inactive: dose: 100.0 mg/kg/injection, schedule: Q01DX009 (ip), vehicle: Klucel (hydroxypropylcellulose) (HPC) 91 % of control | [9] 102 % of control | dose: 200.0 mg/kg/injection, schedule: Q01DX009 (ip), vehicle: Klucel (hydroxypropylcellulose) (HPC) 102 % of control | [10] 104 % of control | dose: 400.0 mg/kg/injection, schedule: Q01DX009 (ip), vehicle: Klucel (hydroxypropylcellulose) (HPC) 92 % of control | [11] 102 % of control

C[n+]1csc2ccccc21
inactive: dose: 100.0 mg/kg/injection, schedule: Q01DX001 (ip), vehicle: saline 108 % of control | dose: 200.0 mg/kg/injection, schedule: Q01DX001 (ip), vehicle: saline 103 % of control | dose: 400.0 mg/kg/injection, schedule: Q01DX001 (ip), vehicle: saline 103 % of control

CCOC(=O)c1cc(OC(C)=O)c2c(ccc3cc(OC)ccc32)c1CC
inactive: [5] 91 % of control | [3] 93 % of control | [6] 96 % of control | [7] 91 % of control | [8] 91 % of control

— PubChem BioAssay AID248 (DTP/NCI, 2004)
